These results are taken from patent publication US7544694B2, “Substituted diaza-spiro-[5.5]-undecane derivatives and their use as neurokinin antagonists” (Janssen Pharmaceutica N.V., priority 2004, dated 2009).

Type in all cases: cell-based
For one assay, the target named is T1, NK2 (Homo sapiens, UniProt P21452).
T1 sequence (P21452 1-398): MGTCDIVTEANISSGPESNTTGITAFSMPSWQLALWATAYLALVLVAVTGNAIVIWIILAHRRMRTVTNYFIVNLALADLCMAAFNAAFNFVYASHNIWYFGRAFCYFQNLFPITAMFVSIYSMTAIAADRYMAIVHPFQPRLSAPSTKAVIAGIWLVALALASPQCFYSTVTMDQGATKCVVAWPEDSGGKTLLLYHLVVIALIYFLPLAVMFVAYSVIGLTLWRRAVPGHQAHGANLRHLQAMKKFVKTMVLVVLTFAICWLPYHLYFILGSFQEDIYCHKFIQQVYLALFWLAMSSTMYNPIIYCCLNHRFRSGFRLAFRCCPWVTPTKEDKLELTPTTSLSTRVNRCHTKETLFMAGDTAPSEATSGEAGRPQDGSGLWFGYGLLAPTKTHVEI
Nature of the assay: Signal transduction (ST), intracellular Ca++ (FLIPR), NK2. The conditions noted are these: antagonist, read-out: NK2 pIC50 (converted). The protocol: [The source words this procedure for another target and reports this target under the same test.] (§1) This test evaluates in vitro functional NK1 antagonistic activity. For the measurements of intracellular Ca^++ concentrations the cells were grown on 96-well (black wall/transparent bottom) plates from Costar for 2 days until they reached confluence. The cells were loaded with 2 μM Fluo3 in DMEM containing 0.1% BSA and 2.5 mM probenecid for 1 h at 37° C. They were washed 3× with a Krebs buffer (140 mM NaCl, 1 mM MgCl2×6H2O, 5 mM KCl, 10 mM glucose, 5 mM HEPES; 1.25 mM CaCl2; pH 7.4) containing 2.5 mM probenecid and 0.1% BSA (Ca^++-buffer). The cells were preincubated with a concentration range of antagonists for 20 min at RT and Ca^++-signals after addition of the agonists were measured in a Fluorescence Image Plate Reader (FLIPR from Molecular Devices, Crawley, England). The peak of the Ca^++-transient was considered as the relevant signal and the mean values of corresponding wells were analysed as described below.
(§2) The sigmoidal dose response curves were analysed by computerised curve-fitting, using the GraphPad Program. The EC50-value of a compound is the effective dose showing 50% of maximal effect. For mean curves the response to the agonist with the highest potency was normalised to 100%. For antagonist responses the IC50-value was calculated using non-linear regression.
(§3) The last columns indicate—without being limited thereto—for which action the compounds might be most suitable. Of course, since for some neurokinin receptors no data was determined, it is obvious that these compounds might be attributed to another suitable use.

A further assay has as its target T2, NK3 (Homo sapiens, UniProt P29371).
T2 sequence (P29371 1-465): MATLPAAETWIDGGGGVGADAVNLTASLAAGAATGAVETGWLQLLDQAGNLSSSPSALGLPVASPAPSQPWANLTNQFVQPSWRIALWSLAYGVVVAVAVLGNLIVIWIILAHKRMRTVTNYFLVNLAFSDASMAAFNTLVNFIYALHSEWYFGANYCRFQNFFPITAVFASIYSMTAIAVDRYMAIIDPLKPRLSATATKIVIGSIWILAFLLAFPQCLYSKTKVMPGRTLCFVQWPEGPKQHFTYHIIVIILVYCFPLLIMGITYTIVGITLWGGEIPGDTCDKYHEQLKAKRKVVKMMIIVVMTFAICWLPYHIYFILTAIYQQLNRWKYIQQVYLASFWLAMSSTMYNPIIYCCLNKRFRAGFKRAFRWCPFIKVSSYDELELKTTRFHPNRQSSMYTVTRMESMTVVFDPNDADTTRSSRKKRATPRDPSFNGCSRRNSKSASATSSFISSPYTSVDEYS
Kind of assay: Signal transduction (ST), intracellular Ca++ (FLIPR), NK3. The conditions noted are these: antagonist, read-out: NK3 pIC50 (converted). The protocol:
[The source words this procedure for another target and reports this target under the same test.] as §1, §2, §3

The target of another assay is NK1 (Homo sapiens, UniProt P25103). Kind of assay: Signal transduction (ST), intracellular Ca++ (FLIPR), functional NK1 antagonistic activity. The conditions noted are these: antagonist, read-out: NK1 pIC50 (converted). The protocol: as §1, §2, §3
Chain of NK1 (P25103 whole entry): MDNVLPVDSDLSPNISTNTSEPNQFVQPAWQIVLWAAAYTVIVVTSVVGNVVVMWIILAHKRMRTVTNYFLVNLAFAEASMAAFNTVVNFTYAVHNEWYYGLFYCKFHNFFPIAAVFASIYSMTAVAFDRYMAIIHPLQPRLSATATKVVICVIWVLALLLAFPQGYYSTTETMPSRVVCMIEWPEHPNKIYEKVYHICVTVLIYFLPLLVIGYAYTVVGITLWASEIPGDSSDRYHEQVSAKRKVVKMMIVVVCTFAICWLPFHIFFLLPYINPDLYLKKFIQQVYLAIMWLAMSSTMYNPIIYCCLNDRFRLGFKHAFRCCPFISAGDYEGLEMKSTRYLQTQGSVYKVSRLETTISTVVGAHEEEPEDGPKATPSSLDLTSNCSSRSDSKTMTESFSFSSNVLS

With `O=C(C1CCOC1)N1CCCC2(CCCN(C3CCN(C(=O)c4cc(C(F)(F)F)cc(C(F)(F)F)c4)C(Cc4ccccc4)C3)C2)C1` (single isomer, unassigned) [Compound 210], the results for the IC50 on NK2, on NK3 and at NK1 were 1.82 µM, 1.78 µM and 0.288 µM, respectively.
Consider `O=C(C1CCOC1)N1CCCC2(CCCN(C3CCN(C(=O)c4cc(C(F)(F)F)cc(C(F)(F)F)c4)C(Cc4ccccc4)C3)C2)C1` (single isomer, unassigned) [Compound 211], for which the IC50 is 4.57 µM at NK2, about 10 µM on NK3 and 0.282 µM on NK1.
Take `O=C1CCC(C(=O)N2CCC3(CC2)CCN(C2CCN(C(=O)c4cc(C(F)(F)F)cc(C(F)(F)F)c4)C(Cc4ccccc4)C2)CC3)N1` (stereo not shown) [Compound 4]: the values for the IC50 on NK2, on NK3 and on NK1 were 1.55 µM, 1.29 µM and 0.0389 µM, respectively.
As for `O=C(c1cc(C(F)(F)F)cc(C(F)(F)F)c1)N1CCC(N2CCC3(CC2)CCN(C(CO)c2cccs2)CC3)CC1Cc1ccccc1` (stereo not shown) [Compound 6], the figures for the IC50 on NK2, at NK3 and on NK1 were 7.76 µM, over 10 µM and 0.129 µM, respectively.
For the compound `CC(C)(C)C(=O)N1CCC2(CC1)CCN([C@H]1CCN(C(=O)c3cc(C(F)(F)F)cc(C(F)(F)F)c3)[C@H](Cc3ccccc3)C1)CC2` [Compound 7], the values for the IC50 on NK2, on NK3 and on NK1 were over 10 µM, over 10 µM and 0.115 µM, respectively.
In the case of `CC(C)(C)C(=O)N1CCC2(CC1)CCN([C@@H]1CCN(C(=O)c3cc(C(F)(F)F)cc(C(F)(F)F)c3)[C@H](Cc3ccccc3)C1)CC2` [Compound 8], the figures for the IC50 at NK2, on NK3 and on NK1 were 2.82 µM, 4.47 µM and 0.0437 µM, respectively.
As to `CC1(C(=O)N2CCC3(CC2)CCN([C@H]2CCN(C(=O)c4cc(C(F)(F)F)cc(C(F)(F)F)c4)[C@H](Cc4ccccc4)C2)CC3)CC1` [Compound 11], the results for the IC50 on NK2 and on NK1 were 5.37 µM and 0.105 µM, respectively.
Consider `NC(=O)C1(C(=O)N2CCC3(CC2)CCN([C@H]2CCN(C(=O)c4cc(C(F)(F)F)cc(C(F)(F)F)c4)[C@H](Cc4ccccc4)C2)CC3)CC1` [Compound 14], for which the IC50 was over 10 µM at NK2 and 0.0316 µM on NK1.
On to `CC1CC1C(=O)N1CCC2(CC1)CCN([C@H]1CCN(C(=O)c3cc(C(F)(F)F)cc(C(F)(F)F)c3)[C@H](Cc3ccccc3)C1)CC2` (stereo partly shown) [Compound 15], for which the IC50 at NK2 is 3.16 µM; at NK3 it was 7.94 µM; at NK1, 0.129 µM.
For `CC1(C)C(C(=O)N2CCC3(CC2)CCN([C@H]2CCN(C(=O)c4cc(C(F)(F)F)cc(C(F)(F)F)c4)[C@H](Cc4ccccc4)C2)CC3)C1(C)C` [Compound 16], the IC50 on NK2 is over 10 µM; on NK3 it was 8.51 µM; at NK1, 0.191 µM.
Taken in the same sequence, the figures for `O=C(C1CCCC1)N1CCC2(CC1)CCN([C@@H]1CCN(C(=O)c3cc(C(F)(F)F)cc(C(F)(F)F)c3)[C@H](Cc3ccccc3)C1)CC2` [Compound 18] were 1.2 µM, 4.68 µM and 0.0204 µM.
On to `O=C(C1CCOC1)N1CCC2(CC1)CCN([C@H]1CCN(C(=O)c3cc(C(F)(F)F)cc(C(F)(F)F)c3)[C@H](Cc3ccccc3)C1)CC2` (stereo partly shown) [Compound 21], for which the IC50 was 2.34 µM at NK2, 2.14 µM on NK3 and 0.0166 µM at NK1.
For `O=C(c1ccoc1)N1CCC2(CC1)CCN([C@H]1CCN(C(=O)c3cc(C(F)(F)F)cc(C(F)(F)F)c3)[C@H](Cc3ccccc3)C1)CC2` [Compound 24], in that order: over 10 µM, 1.32 µM and 0.112 µM.
Turning to `Cc1ccoc1C(=O)N1CCC2(CC1)CCN([C@H]1CCN(C(=O)c3cc(C(F)(F)F)cc(C(F)(F)F)c3)[C@H](Cc3ccccc3)C1)CC2` [Compound 25], the IC50 at NK2 is 3.98 µM; on NK3 it was over 10 µM; at NK1 it was 0.0832 µM.
In the case of `Cc1occc1C(=O)N1CCC2(CC1)CCN([C@H]1CCN(C(=O)c3cc(C(F)(F)F)cc(C(F)(F)F)c3)[C@H](Cc3ccccc3)C1)CC2` [Compound 27], the values for the IC50 at NK2, at NK3 and at NK1 were 4.47 µM, 3.31 µM and 0.0204 µM, respectively.
As for `Cc1ccc(C(=O)N2CCC3(CC2)CCN([C@H]2CCN(C(=O)c4cc(C(F)(F)F)cc(C(F)(F)F)c4)[C@H](Cc4ccccc4)C2)CC3)s1` [Compound 30], the IC50 is 7.94 µM at NK2, over 10 µM on NK3 and 0.692 µM on NK1.
On to `Cc1ccsc1C(=O)N1CCC2(CC1)CCN([C@H]1CCN(C(=O)c3cc(C(F)(F)F)cc(C(F)(F)F)c3)[C@H](Cc3ccccc3)C1)CC2` [Compound 32], for which the values for the IC50 at NK2, at NK3 and at NK1 were 3.16 µM, 6.61 µM and 0.0759 µM, respectively.
Regarding `Cn1cccc1C(=O)N1CCC2(CC1)CCN([C@H]1CCN(C(=O)c3cc(C(F)(F)F)cc(C(F)(F)F)c3)[C@H](Cc3ccccc3)C1)CC2` [Compound 33], the IC50 on NK2 is over 10 µM; at NK3 it was over 10 µM; at NK1, 0.2 µM.
Turning to `Cn1cnc(C(=O)N2CCC3(CC2)CCN([C@H]2CCN(C(=O)c4cc(C(F)(F)F)cc(C(F)(F)F)c4)[C@H](Cc4ccccc4)C2)CC3)c1` [Compound 34], the IC50 is 6.17 µM at NK2, over 10 µM on NK3 and 0.191 µM at NK1.
Taken in the same sequence, the figures for `Cc1noc(C)c1C(=O)N1CCC2(CC1)CCN([C@H]1CCN(C(=O)c3cc(C(F)(F)F)cc(C(F)(F)F)c3)[C@H](Cc3ccccc3)C1)CC2` [Compound 35] were over 10 µM, over 10 µM and 0.0191 µM.
Take `Cc1nnsc1C(=O)N1CCC2(CC1)CCN([C@H]1CCN(C(=O)c3cc(C(F)(F)F)cc(C(F)(F)F)c3)[C@H](Cc3ccccc3)C1)CC2` [Compound 36]: the IC50 was 4.27 µM on NK2, over 10 µM on NK3 and 0.0282 µM on NK1.
In the case of `CC1(C(=O)N2CCC3(CC2)CCN([C@H]2CCN(C(=O)c4cc(C(F)(F)F)cc(C(F)(F)F)c4)[C@H](Cc4ccccc4)C2)CC3)CCCCC1` [Compound 37], the IC50 at NK2 is 8.13 µM; at NK3, over 10 µM; on NK1 it was 0.0955 µM.
In the case of `CC1CCCCC1C(=O)N1CCC2(CC1)CCN([C@@H]1CCN(C(=O)c3cc(C(F)(F)F)cc(C(F)(F)F)c3)[C@H](Cc3ccccc3)C1)CC2` (stereo partly shown) [Compound 39], the IC50 at NK2 was 4.79 µM; at NK3, 5.37 µM; on NK1, 0.0851 µM.
As for `O=C(c1cc(C(F)(F)F)cc(C(F)(F)F)c1)N1CC[C@H](N2CCC3(CC2)CCN(S(=O)(=O)c2cc(Cl)sc2Cl)CC3)C[C@H]1Cc1ccccc1` [Compound 97], the IC50 at NK3 is about 10 µM; on NK1, 0.0871 µM.
Take `O=C(c1cc(C(F)(F)F)cc(C(F)(F)F)c1)N1CC[C@H](N2CCC3(CC2)CCN(S(=O)(=O)c2ccccc2Cl)CC3)C[C@H]1Cc1ccccc1` [Compound 106]: the IC50 at NK3 is 0.525 µM; at NK1, 0.0603 µM.
For `O=C(c1cc(C(F)(F)F)cc(C(F)(F)F)c1)N1CC[C@H](N2CCC3(CC2)CCN(S(=O)(=O)c2cc(Cl)ccc2Cl)CC3)C[C@H]1Cc1ccccc1` [Compound 110], the IC50 was 5.13 µM on NK3 and 0.174 µM at NK1.
`N#Cc1ccccc1S(=O)(=O)N1CCC2(CCN([C@H]3CCN(C(=O)c4cc(C(F)(F)F)cc(C(F)(F)F)c4)[C@H](Cc4ccccc4)C3)CC2)CC1` [Compound 118]: the IC50 is 1.51 µM on NK3 and 0.0309 µM on NK1.
For `Cc1cc(C)cc(C(=O)N2CCC(N3CCC4(CCN(C(=O)C5CC5)CC4)CC3)CC2Cc2ccccc2)c1` (stereo not shown) [Compound 153], the IC50 at NK2 was over 10 µM; on NK1, 0.145 µM.
`O=C(C1CC1)N1CCC2(CC1)CCN(C1CCN(C(=O)c3cc(Cl)cc(Cl)c3)C(Cc3ccccc3)C1)CC2` (stereo not shown) [Compound 155]: the IC50 is 6.46 µM on NK2 and 0.158 µM on NK1.
